Measurements published in patent US8580728B2, “Use of fragrance compositions for the prevention of the development of indole base malodours from fecal and urine based soils” (Takasago International Corporation, priority 2006, dated 2013).

Assay: Decrease of fragrance compound concentration during the indole inhibition test (GCMS)
Assay type: physicochemical
Set-up: key: Y = Yes
Conditions: 24 hours in fresh human urine, room temperature; for Decrease in Fragrance Compounds after 24 hours (%): 0-30%: category 0-30% decrease; for Decrease in Fragrance Compounds after 24 hours (%): >60%: category >60% decrease
Method: Advantageously, the appropriate fragrance compounds may be selected by using the following preferred indole inhibition test which comprises the following steps: • A) 0.02 g of fragrance and 0.02 g of Tergitol 15-s-12 was added to 7 g of fresh human urine in a 20 ml Headspace vial sealed with a PTFE faced septum and well mixed for 10 minutes using a magnetic stirrer. For a blank to test the suitability of a batch of fresh human urine, 7 g of human urine was used with 0.02 g of demineralised water and 0.02 g of Tergitol 15-s-12. If a control was required, to test the efficacy of product base for example, the control contained 7 g of human urine to which was added 0.02 g of fragrance, minus the active agents and 0.02 g of Tergitol 15-s-12. • B) The vials are placed in an autosampler tray at room temperature. • C) At different times the headspace in the vials is sampled for 5 minutes at 35° C. by an SPME fibre (PDMS fibre ex Supelco) after 10 minutes at 35° C. (incubation time). • D) The SPME fibre is desorbed 1 minute at 265° C. from a CTC Combipal autosampler and injected in splitless mode onto an Agilent GC-MS 5973N with a HP-INNOWAX column (30 m×0.25×0.25). (Oven conditions: 50° C. during 2 min-to 250° C. at 10° C./min-250° C. during 5 minutes). • E) Under the above GC-MS conditions, indole has a retention time of 19.14 minutes, and can be recognised by its characteristic ions (m/z 117, m/z 89 and m/z 90). • F) In the range of values determined in this work, the area of the indole peak (117) is linearly related to the actual concentration in the vial, and was used without further correction to establish the concentration of indole in “Active” and “Blank” and if present any “Control” fragrances. • G) The material is deemed to be active if the indole concentration in the test sample is below 0.01 ppm (wt/wt) after 24 hours incubation at room temperature and the indole in the blank samples is between 0.25 ppm (wt/wt) and 1.25 ppm (wt/wt) indole after 24 hours storage at room temperature. • H) The change in the active ingredient concentration is determined by comparing measurements at the start of the experiment and after 24 hours using appropriate characteristic ions.
This can be determined by measuring the fragrance concentration in the sample containing the test cocktail at the start and end of the indole inhibition test as described in step I of the test. If the difference between the measurements is less than 60% preferably less than 30% then the material is considered as not to have changed sufficiently to alter the fragrance note and to be particularly preferred.
A sample of fresh human urine is divided into equal portions and a fragrance containing one or more of the effective materials was added as described in the Indole Inhibition Test. […] The samples were stored and after 24 hours the indole content and fragrance active content is measured by gas chromatography with mass spectrometric (GCMS) detection. Those formulations containing active ingredients prevented the formation of indole while both the unfragranced and the alcohol containing control samples had much greater quantities of indole present. Also for the active compounds a GCMS measurement indicated the extent to which the compound was itself consumed as part of the process. In table 2 the decrease in fragrance components has been classified into 3 categories and the letter Y indicates the appropriate category for the compounds which have been measured. The absence of a letter Y in any category means that the decrease has not been measured for that compound.

Row | SMILES | Decrease in Fragrance Compounds after 24 hours (%): 0-30% | further results
1 | O=C/C=C/c1ccccc1 [Cinnamic aldehyde] | Y | 
2 | CCCCCCCCCCC=O [Aldehyde C11] |  | Decrease in Fragrance Compounds after 24 hours (%): >60%: Y
3 | O=Cc1ccccc1 [Benzaldehyde] | Y | 
4 | C=C(C)C1CC=C(C=O)CC1 (stereo not shown) [Perilla aldehyde] | Y | 
5 | CC(C)=CCCC(C)=CC=O [Citral] | Y | 
6 | CCc1occc(=O)c1O [Veltol Plus] |  | Decrease in Fragrance Compounds after 24 hours (%): >60%: Y
7 | CCC/C=C/C=O [Trans 2 hexenal] |  | Decrease in Fragrance Compounds after 24 hours (%): 0-60% (category 0-60% decrease): Y
